# US20150306107A1, “SAA Derivative Compound Restores eNOS And Inhibits Oxidative Stress-Induced A Diseases In Hypoxia” (JANSFAT BIOTECHNOLOGY CO., LTD., priority 2014, published 2015)
# Where a name gives a salt, the structure may show the parent alone.
# Legend:
# ROCK II [1] = assay: Streptozotocin (STZ) induced RhoA/ROCKII activation of rat carvenosa tissue; type: in vivo; details: STZ model; 2.5 mg/kg; Control 100, STZ 142 ± 28
# Procedure: (§1) Electrophoresis was performed using 10% SDS-polyacrylamide gel (2 hr, 100 V, 40 mA, […] protein per lane). Separated proteins were transferred to PVDF membranes treated with 5% fat-free milk powder to block the nonspecific IgGs (90 min, 100 V) and incubated for one hour with a specific protein antibody. The blot was then incubated with anti-mouse or anti-goat IgG linked to alkaline phosphatase (1:1000) for 1 hr. Immunoreactive bands were visualized using horseradish peroxidase-conjugated secondary antibodies and subsequent electrochemiluminescence (ECL) detection (GE Healthcare Bio-Sciences Corp., Piscataway, N.J., U.S.A.). Mouse or rabbit monoclonal antibody of eNOS (Upstate, N.Y., U.S.A.), sGCα (Sigma-Adrich, CA, U.S.A., sGCβ (Santa Cruz, Calif., U.S.A.), PDE-5A (BD Tansduction, San Jose, Calif., U.S.A.), PKG (Calbiochem, San Diego, Calif., U.S.A.) ROCKII (Upstate, N.Y., U.S.A.), RhoA (Santa Cruze, Calif., U.S.A.) and the loading control protein β-actin (Sigma-Adrich, MO, U.S.A.) were used in our Western blot analysis.
# VEGF [2] = assay: Western blotting of VEGF expression in isolated rat pulmonary artery ring, short-term (acute) hypoxia; type: cell-based; details: Normoxia 100, Hypoxia 175 ± 14
# Procedure: (§2) In our in vitro short-term experiment, isolated rat pulmonary artery was grown under normoxia (20% O2) or hypoxia (1% O2) at 37° C. for 24 hrs as was previously done (Wu BN, et al. Int J Immunopathol Pharmacol 24:925, 2011). The heart weight and body weight ratio (HW/BW) of the rats treated with one of SPAAX-1, SPAAX-1 RX complex, Sildenafil or Sildenafil RX complex each measured on the 21st hypoxic day. All animal care and the experimental protocols of this study were approved by the Animal Care and Use Committee of the Kaohsiung Medical University. Male Wistar rats (200-250 g), provided by the National Laboratory Animal Breeding and Research Center (Taipei, Taiwan), were housed under constant temperature and controlled illumination. Food and water were available ad libitum.
# (§3) Whole right lung tissues of hypoxia-treated and untreated rats were isolated and cut into small strips and placed into an extraction buffer (Tris 10 mM, pH 7.0, NaCl 140 mM, PMSF 2 mM, DTT 5 mM, NP-40 0.5%, pepstatin A 0.05 mM and leupeptin 0.2 mM) for protein extraction, and then centrifuged at 12,500 g for 30 min. To measure the expression levels of the proteins, the total proteins were extracted and Western blotting analysis was performed as described previously (Bivalacqua T J, et al., 2013, TJ PLoSONE 8: e68028. doi:10.1371/journal. pone.0068028). Briefly, the protein extract was boiled to a ratio of 4:1 with a sample buffer (Tris 100 mM, pH 6.8, glycerol 20%, SDS 4% and bromophenol blue 0.2%). Electrophoresis was performed using 10% SDS-polyacrylamide gel (2 hr, 100 V, 40 mA, […] protein per lane). Separated proteins were transferred to PVDF membranes treated with 5% fat-free milk powder to block the nonspecific IgGs (90 min, 100 V) and incubated for one hour with a specific protein antibody. The blot was then incubated with anti-mouse or anti-goat IgG linked to alkaline phosphatase (1:1000) for 1 hr. Immunoreactive bands were visualized using horseradish peroxidase-conjugated secondary antibodies and subsequent electrochemiluminescence (ECL) detection (GE Healthcare Bio-Sciences Corp., Piscataway, N.J., U.S.A.). Mouse or rabbit monoclonal antibody of eNOS (Upstate, N.Y., U.S.A.), sGCα (Sigma-Adrich, CA, U.S.A., sGCβ (Santa Cruz, Calif., U.S.A.), PDE-5A (BD Tansduction, San Jose, Calif., U.S.A.), PKG (Calbiochem, San Diego, Calif., U.S.A.) ROCKII (Upstate, N.Y., U.S.A.), RhoA (Santa Cruze, Calif., U.S.A.) and the loading control protein β-actin (Sigma-Adrich, MO, U.S.A.) were used in our Western blot analysis.
# (§4) The Western blotting analysis measurements were performed as per lung tissue.
# eNOS [3] = assay: Western blotting of eNOS expression in isolated rat pulmonary artery ring, short-term (acute) hypoxia or normoxia; type: cell-based; details: acute hypoxia; Normoxia 100, Hypoxia 65.3 ± 7.8
# Procedure: as §2, §3, §4
# eNOS [4] = assay: Streptozotocin (STZ) induced eNOS down-regulation of rat carvenosa tissue; type: in vivo; details: STZ model; 2.5 mg/kg; Control 100, STZ 60 ± 7.3
# Procedure: as §1
# ROCK II [5] = assay: Western blotting of ROCK II expression in isolated rat pulmonary artery ring, short-term (acute) hypoxia or normoxia; type: cell-based; details: acute hypoxia; Normoxia 100, Hypoxia 560 ± 21
# Procedure: as §2, §3, §4
# eNOS [6] = assay: Western blotting of eNOS expression in rat carvenosus strip, acute hypoxia; type: cell-based; design: unit not given here; details: Normoxia 100, Hypoxia 62.4 ± 5.5
# ROCK II [7] = assay: Cigarette smoking-induced Rho/ROCK activation of rat pulmonary artery ring; type: in vivo; details: Nebulization (2.5 mM), Non-Smoking control 100, Smoking 540 ± 28
# ROCK II [8] = assay: as above; type: in vivo; details: Intraperitoneal (100 mg/kg) 1 h prior to smoke exposure, Non-Smoking control 100, Smoking 530 ± 34
# Procedure: Intraperitoneal SAA complex (100 mg/kg in 200 μl of the solution) or 200 μl of saline (control) were given to animals through intraperitoneal injection 1 h prior to smoke exposure.
# as §3
# VEGF [9] = assay: Western blotting of VEGF expression in rat carvenosus strip, acute hypoxia; type: cell-based; design: unit not given here; details: Normoxia 100, Hypoxia 170 ± 15
compound,measurement,setting,value
"CCCc1nn(C)c2c(=O)[nH]c(-c3cc(S(=O)(=O)N4CCN(C)CC4)ccc3OCC)nc12 [Reagent 1004, Sildenafil citrate complex, reference compound]","ROCK II, Carvanosus tissue",ROCK II [1],44 ± 3.8%
same,"VEGF expression, Pulmonary Artery Ring",VEGF [2],110 ± 3.8
same,"eNOS expression, Pulmonary Artery Ring",eNOS [3],132 ± 6.6
same,"eNOS, Carvanosus tissue",eNOS [4],74 ± 6.8%
same,"ROCK II expression, Pulmonary Artery Ring",ROCK II [5],205 ± 8.5
same,"eNOS expression, Carvenosus",eNOS [6],125 ± 6.9
same,ROCK II of pulmonary artery ring,ROCK II [7],64 ± 3.8
same,ROCK II of pulmonary artery ring,ROCK II [8],76 ± 6.8
same,"VEGF expression, Carvenosus",VEGF [9],105 ± 9.2
